Results from ChEMBL document CHEMBL1139192, “Novel bis(indolyl)maleimide pyridinophanes that are potent, selective inhibitors of glycogen synthase kinase-3” (Bioorg Med Chem Lett, 2007).

How the values were obtained:
[1] = biological target: Glycogen synthase kinase-3 beta (Homo sapiens, UniProt P49841); test: Inhibition of human recombinant GSK3-beta
[2] = biological target: Insulin receptor (Homo sapiens) (UniProt P06213); test: Residual activity of human IR at 1 uM relative to control
[3] = biological target: Serine/threonine-protein kinase N2 (Homo sapiens) (UniProt Q16513); test: Residual activity of human PRK2 at 1 uM relative to control
Chain of Serine/threonine-protein kinase N2 (Homo sapiens) (Q16513 whole entry, looked up): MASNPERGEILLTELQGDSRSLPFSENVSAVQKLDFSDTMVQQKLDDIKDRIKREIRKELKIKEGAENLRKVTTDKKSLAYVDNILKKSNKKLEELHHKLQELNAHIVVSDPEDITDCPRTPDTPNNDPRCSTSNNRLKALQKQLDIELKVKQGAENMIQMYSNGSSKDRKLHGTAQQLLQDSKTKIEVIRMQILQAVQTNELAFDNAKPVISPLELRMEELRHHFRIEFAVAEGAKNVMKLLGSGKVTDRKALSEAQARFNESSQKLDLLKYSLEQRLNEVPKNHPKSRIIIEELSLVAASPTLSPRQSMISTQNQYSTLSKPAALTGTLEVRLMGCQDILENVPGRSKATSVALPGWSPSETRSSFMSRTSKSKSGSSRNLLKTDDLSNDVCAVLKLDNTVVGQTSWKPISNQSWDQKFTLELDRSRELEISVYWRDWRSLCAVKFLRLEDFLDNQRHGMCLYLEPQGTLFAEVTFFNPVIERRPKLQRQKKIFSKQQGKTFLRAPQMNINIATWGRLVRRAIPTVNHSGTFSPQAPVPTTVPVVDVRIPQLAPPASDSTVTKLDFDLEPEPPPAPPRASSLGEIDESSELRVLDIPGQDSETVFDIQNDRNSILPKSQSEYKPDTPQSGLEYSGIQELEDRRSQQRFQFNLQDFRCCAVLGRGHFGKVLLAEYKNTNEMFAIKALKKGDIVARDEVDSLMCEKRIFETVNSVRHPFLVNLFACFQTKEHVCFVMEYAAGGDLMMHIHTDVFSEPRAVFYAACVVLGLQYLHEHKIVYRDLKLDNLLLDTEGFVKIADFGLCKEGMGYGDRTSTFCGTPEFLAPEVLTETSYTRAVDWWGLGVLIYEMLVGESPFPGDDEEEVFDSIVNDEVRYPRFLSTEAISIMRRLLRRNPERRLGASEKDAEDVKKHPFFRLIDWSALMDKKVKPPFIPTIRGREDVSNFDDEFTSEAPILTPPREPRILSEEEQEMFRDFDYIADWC

[4] = organism: Homo sapiens; test: Residual activity of human CDK3/Cyclin E at 1 uM relative to control
[5] = biological target: MAP kinase-activated protein kinase 2 (Homo sapiens) (UniProt P49137); test: Inhibition of MAPKAPK2 at 1 uM relative to control; values are per cent of control
[6] = biological target: Casein kinase II (Homo sapiens) (UniProt P67870+P68400+P19784); test: Inhibition of human CK2 at 1 uM relative to control; values are per cent of control
[7] = biological target: Tyrosine-protein kinase CSK (Homo sapiens) (UniProt P41240); test: Inhibition of human CSK at 1 uM relative to control; values are per cent of control
Chain of Tyrosine-protein kinase CSK (Homo sapiens) (P41240 2-450 limits assumed): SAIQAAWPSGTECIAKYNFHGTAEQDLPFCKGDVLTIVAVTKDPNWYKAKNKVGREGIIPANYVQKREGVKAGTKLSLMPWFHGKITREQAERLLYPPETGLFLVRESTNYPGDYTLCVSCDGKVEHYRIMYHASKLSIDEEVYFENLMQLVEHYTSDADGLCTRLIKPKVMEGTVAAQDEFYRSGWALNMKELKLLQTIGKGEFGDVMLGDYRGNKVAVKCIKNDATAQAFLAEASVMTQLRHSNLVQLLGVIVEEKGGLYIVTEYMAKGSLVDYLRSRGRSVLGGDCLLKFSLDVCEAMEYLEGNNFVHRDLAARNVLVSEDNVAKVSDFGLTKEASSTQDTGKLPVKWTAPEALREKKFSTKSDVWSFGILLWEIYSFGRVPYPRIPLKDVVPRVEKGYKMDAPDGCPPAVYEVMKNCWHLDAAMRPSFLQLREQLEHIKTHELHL

[8] = biological target: T1, Serine/threonine-protein kinase Sgk1 (Homo sapiens) (UniProt O00141); test: Inhibition of human SGK at 1 uM relative to control; values are per cent of control
T1 sequence (whole entry): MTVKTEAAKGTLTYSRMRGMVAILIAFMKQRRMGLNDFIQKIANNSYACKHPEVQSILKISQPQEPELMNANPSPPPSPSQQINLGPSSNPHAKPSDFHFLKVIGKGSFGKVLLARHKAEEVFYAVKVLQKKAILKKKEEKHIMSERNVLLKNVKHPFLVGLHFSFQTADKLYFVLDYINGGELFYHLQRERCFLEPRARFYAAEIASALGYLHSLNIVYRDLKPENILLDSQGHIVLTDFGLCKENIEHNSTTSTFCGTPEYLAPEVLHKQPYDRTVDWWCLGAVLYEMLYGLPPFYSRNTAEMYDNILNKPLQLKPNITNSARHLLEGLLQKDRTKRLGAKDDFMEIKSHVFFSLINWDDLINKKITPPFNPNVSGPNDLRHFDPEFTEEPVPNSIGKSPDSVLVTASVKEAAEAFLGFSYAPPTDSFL

[9] = biological target: T2, Serine/threonine-protein kinase Chk1 (Homo sapiens) (UniProt O14757); test: Inhibition of human CHK1 at 1 uM relative to control; values are per cent of control
T2 sequence (whole entry): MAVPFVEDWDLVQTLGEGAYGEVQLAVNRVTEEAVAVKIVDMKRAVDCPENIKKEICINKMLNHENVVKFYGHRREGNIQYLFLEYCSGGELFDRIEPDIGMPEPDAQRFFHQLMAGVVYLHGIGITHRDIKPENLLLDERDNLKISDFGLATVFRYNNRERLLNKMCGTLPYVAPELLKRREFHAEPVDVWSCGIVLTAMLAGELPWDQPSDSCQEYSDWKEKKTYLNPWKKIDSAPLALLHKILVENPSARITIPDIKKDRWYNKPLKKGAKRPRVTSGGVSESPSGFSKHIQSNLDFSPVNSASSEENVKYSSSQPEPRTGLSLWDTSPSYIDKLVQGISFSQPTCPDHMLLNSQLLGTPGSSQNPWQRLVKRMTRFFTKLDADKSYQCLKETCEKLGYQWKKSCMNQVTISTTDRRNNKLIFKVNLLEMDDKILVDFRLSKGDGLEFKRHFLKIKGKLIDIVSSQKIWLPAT

[10] = biological target: Ribosomal protein S6 kinase alpha-3 (Homo sapiens) (UniProt P51812); test: Inhibition of human Rsk3 at 1 uM relative to control; values are per cent of control
[11] = biological target: T3, Ephrin type-B receptor 2 (Homo sapiens) (UniProt P29323); test: Inhibition of human EphB2 at 1 uM relative to control; values are per cent of control
T3 sequence (whole entry): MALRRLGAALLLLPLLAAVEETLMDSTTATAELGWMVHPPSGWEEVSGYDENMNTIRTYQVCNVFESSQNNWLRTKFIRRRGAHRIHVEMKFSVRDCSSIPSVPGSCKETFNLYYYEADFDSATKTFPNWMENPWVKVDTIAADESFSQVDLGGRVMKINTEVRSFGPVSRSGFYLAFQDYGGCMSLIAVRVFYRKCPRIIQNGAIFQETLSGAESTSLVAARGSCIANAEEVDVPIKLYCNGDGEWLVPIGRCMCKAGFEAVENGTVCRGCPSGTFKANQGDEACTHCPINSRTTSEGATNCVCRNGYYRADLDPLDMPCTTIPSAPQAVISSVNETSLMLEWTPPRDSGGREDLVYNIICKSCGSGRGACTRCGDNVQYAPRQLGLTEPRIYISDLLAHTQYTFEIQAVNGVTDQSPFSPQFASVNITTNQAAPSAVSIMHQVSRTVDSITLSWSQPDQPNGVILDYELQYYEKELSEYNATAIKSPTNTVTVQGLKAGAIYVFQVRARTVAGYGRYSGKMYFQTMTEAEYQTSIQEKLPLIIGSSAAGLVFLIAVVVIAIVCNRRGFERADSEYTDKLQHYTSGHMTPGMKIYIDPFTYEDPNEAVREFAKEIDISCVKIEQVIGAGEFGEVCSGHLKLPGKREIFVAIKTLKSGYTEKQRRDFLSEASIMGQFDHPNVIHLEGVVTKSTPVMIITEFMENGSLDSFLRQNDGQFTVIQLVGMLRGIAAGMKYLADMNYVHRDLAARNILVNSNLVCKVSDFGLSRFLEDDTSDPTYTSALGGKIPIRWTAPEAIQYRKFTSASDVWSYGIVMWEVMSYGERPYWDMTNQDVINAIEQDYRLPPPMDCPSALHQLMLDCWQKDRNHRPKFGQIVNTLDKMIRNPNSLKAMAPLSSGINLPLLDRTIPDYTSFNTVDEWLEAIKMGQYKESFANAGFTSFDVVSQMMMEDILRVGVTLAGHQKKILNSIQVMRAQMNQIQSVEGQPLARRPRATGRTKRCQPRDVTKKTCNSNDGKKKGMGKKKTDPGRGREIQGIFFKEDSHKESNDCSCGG

[12] = biological target: Cyclin-dependent kinase 5/CDK5 activator 1 (Homo sapiens) (UniProt Q00535+Q15078); test: Inhibition of human CDK5/p35 at 1 uM relative to control; values are per cent of control
Chain of Cyclin-dependent kinase 5/CDK5 activator 1 (Homo sapiens) (Q00535 whole entry): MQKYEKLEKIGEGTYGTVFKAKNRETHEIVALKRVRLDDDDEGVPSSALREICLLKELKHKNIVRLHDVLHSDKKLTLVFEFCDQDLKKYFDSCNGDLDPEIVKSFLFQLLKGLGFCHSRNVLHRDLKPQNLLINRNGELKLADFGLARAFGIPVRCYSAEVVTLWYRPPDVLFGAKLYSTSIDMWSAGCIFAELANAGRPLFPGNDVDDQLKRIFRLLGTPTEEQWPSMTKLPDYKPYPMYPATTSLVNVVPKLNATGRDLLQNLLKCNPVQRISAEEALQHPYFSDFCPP
Chain of Cyclin-dependent kinase 5/CDK5 activator 1 (Homo sapiens) (Q15078 99-307 partner limits assumed): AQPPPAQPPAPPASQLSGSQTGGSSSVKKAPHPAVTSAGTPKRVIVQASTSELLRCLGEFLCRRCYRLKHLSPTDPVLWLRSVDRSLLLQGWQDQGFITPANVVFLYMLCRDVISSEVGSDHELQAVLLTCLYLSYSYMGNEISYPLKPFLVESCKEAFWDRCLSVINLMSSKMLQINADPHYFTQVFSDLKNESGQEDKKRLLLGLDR

[13] = biological target: Proto-oncogene tyrosine-protein kinase ROS (Homo sapiens) (UniProt P08922); test: Inhibition of human Ros kinase at 1 uM relative to control; values are per cent of control
Chain of Proto-oncogene tyrosine-protein kinase ROS (Homo sapiens) (P08922 whole entry): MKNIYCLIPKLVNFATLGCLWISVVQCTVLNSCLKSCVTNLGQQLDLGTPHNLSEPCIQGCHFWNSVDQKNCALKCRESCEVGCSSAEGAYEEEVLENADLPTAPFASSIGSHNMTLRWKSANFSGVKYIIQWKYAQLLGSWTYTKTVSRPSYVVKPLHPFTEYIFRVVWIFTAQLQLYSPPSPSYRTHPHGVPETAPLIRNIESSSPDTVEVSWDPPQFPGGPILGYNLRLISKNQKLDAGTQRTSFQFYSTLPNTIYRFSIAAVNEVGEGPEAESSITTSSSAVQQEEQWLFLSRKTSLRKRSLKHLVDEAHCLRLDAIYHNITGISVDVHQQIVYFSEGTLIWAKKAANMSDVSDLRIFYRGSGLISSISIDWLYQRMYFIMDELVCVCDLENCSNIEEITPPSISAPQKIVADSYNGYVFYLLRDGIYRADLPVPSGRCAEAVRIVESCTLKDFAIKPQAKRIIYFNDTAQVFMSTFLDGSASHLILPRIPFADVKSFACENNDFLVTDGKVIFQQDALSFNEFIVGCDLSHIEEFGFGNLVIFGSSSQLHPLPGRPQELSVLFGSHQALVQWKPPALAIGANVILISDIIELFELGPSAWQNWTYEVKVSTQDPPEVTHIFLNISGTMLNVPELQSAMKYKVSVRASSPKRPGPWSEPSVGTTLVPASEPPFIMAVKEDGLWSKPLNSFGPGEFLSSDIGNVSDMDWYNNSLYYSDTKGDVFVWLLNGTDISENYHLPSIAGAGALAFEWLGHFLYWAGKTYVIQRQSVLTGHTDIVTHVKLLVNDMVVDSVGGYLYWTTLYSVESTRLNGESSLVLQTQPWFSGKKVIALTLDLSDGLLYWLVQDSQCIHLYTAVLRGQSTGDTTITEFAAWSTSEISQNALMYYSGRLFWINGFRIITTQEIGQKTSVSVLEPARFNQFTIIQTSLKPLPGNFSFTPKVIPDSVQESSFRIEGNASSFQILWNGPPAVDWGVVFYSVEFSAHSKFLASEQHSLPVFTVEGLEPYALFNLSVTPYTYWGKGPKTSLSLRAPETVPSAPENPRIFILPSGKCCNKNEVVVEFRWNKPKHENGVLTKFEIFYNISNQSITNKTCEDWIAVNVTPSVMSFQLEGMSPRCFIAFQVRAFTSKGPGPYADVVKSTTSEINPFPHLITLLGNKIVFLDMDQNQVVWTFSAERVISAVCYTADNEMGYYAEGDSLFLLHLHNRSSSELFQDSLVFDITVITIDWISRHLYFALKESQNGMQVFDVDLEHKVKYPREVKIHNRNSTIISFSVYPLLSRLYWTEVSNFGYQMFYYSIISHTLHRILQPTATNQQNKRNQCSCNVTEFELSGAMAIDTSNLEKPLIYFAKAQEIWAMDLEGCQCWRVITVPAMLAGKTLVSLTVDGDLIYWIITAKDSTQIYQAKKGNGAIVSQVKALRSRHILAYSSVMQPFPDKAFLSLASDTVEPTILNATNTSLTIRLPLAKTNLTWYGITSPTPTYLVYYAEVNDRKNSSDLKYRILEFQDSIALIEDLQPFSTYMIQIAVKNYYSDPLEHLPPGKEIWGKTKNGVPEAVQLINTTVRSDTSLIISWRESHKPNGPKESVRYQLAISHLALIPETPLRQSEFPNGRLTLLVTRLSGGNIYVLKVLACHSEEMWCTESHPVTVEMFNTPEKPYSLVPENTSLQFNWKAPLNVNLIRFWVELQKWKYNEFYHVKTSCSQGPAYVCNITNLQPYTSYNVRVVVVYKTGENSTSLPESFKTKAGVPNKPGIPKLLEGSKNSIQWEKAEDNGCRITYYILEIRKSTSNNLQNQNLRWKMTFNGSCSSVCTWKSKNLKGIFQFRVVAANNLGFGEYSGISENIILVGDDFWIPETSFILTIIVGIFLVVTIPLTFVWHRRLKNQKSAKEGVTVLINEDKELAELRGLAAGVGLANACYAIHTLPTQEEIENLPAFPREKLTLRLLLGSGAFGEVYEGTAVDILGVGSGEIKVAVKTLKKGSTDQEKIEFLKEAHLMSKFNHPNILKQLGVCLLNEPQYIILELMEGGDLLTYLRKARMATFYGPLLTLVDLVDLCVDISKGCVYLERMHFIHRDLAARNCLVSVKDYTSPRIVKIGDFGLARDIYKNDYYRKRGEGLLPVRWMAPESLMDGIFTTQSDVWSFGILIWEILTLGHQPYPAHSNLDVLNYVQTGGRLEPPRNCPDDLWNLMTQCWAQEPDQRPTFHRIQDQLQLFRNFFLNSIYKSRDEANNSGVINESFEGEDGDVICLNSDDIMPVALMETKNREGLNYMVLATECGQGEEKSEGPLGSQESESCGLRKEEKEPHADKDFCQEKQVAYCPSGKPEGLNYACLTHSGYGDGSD

Chain of Glycogen synthase kinase-3 beta (P49841 whole entry): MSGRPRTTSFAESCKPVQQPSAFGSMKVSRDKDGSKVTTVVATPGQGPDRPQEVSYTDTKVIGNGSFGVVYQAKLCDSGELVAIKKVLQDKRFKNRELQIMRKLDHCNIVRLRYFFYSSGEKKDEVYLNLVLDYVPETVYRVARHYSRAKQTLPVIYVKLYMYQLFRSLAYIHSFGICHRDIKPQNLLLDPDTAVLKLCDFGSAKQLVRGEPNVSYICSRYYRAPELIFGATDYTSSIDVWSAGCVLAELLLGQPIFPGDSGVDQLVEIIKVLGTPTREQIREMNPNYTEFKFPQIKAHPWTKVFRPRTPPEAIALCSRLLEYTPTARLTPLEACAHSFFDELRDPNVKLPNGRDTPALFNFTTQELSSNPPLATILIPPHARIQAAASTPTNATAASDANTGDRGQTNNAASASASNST

Compound	IC50 [1] [nM]	residual activity [2] [%]	residual activity [3] [%]	residual activity [4] [%]	residual activity [5] [%]	residual activity [6] [%]	residual activity [7] [%]	residual activity [8] [%]	residual activity [9] [%]	residual activity [10] [%]	residual activity [11] [%]	residual activity [12] [%]	residual activity [13] [%]
CN(C)c1nc2ccc1CCCn1cc(c3ccccc31)C1=C(C(=O)NC1=O)c1cn(c3ccccc13)CC2	3	91	106	59	98	107	95	93	105	33	125	99	79
CN(C)c1cc2cc(n1)CCCn1cc(c3ccccc31)C1=C(C(=O)NC1=O)c1cn(c3ccccc13)CCC2	7	102	113	89	101	111	133	105	101	5	114	105	108
O=C1NC(=O)C2=C1c1cn(c3ccccc13)CCCc1ccc(c(N3CCCC3)n1)CCCn1cc2c2ccccc21	30	87	126	106	–	113	129	93	106	25	114	104	105
O=C1NC(=O)C2=C1c1cn(c3ccccc13)CCCc1cc(nc(N3CCCC3)c1)CCCn1cc2c2ccccc21	11	110	110	86	108	108	125	109	110	5	110	99	117
